From patent US20250049786A1, “DOPAMINE D3/D2 RECEPTOR MODULATING COMPOUNDS” (Richter Gedeon Nyrt., priority 2023, published 2025)

How the values were obtained:
[1] = Thermodynamic solubility study (37° C., 4 hours); type: physicochemical; settings: PBS pH = 7.4, 4 hours
Experimental: The resulted mixtures/oversaturated solutions are shaken at 37° C. for 4 hrs (to the solution equilibrium) and are filtrated on a Millipore MultiSreen Filter Plate (0.45 μm). Concentrations of the filtrates are determined by LC/UV/MS based on a 5-point calibration. (When the solid material dissolved totally in the aqueous test medium the result should be considered as a minimal value.) Results are shown in Table 2.

[2] = Thermodynamic solubility study (RT, 24 hours); type: physicochemical; settings: PBS pH = 7.4, 24 hours
Experimental: The resulted mixtures were shaken at room temperature (RT) for 24 hrs (to the solution equilibrium) and were filtrated on a Millipore MultiSreen Filter Plate (0.45 μ). Concentrations of the filtrates were determined by LC/UV/MS based on a 5-point calibration. (When the solid material dissolved totally in the aqueous test medium the result should be considered as a minimal value.) Results are shown in Table 2.

[3] = molecular target: T1, human D3 receptors (Homo sapiens (Human), UniProt P35462); assay: Competitive binding assay at human D3 receptors using [3H]spiperone; settings: CHO-K1 membranes, 0.7 nM [3H]spiperone
Experimental: Cells were scraped from the plates and centrifuged at 1000×g. […] The supernatant was collected and centrifuged at 41,000×g. The supernatant was discarded, and the pellet was resuspended in above buffer.
IC50 values were determined by a non-linear, least squares regression analysis using MathIQ™ (ID Business Solutions Ltd., Surrey, UK).

[4] = molecular target: T2, human D2L receptors (Homo sapiens (Human), UniProt P14416); assay: Competitive binding assay at human D2L receptors using [3H]spiperone; settings: CHO-K1 membranes, 0.16 nM [3H]spiperone
Experimental: CHO-K1 cells expressing human recombinant D2L receptors were washed with phosphate-buffered saline (PBS). Cells were scraped from the plates and centrifuged at 1000×g. Cells were disrupted using a Teflon® pestle homogenizer in buffer containing 25 mM Tris-HCl, pH=7.4, 6 mM MgCl2, 1 mM EDTA, 10 mM phenylmethylsulfonyl fluoride (PMSF). The resulting suspension was centrifuged at 1000×g. The supernatant was collected and centrifuged at 41,000×g. The supernatant was discarded, and the pellet was resuspended in above buffer. The membrane preparation was then aliquoted and stored at −70° C.
Non-specific binding (NSB) was determined in the presence of 10 μM haloperidol (Sigma-Aldrich). After incubation, samples were filtered over UniFilter® GF/C plates (PerkinElmer), washed and Microscint™-20 scintillation cocktail was added. Radioactivity was determined with a MicroBeta^2® microplate counter (PerkinElmer).
From scintillation counts, NSB was subtracted to yield specific binding which was normalized to vehicle-treated samples and converted to displacement % values. IC50 values were determined by a non-linear, least squares regression analysis using MathIQ™ (ID Business Solutions Ltd., Surrey, UK).

[5] = molecular target: T1, human D3 receptors; assay: Competitive binding assay at human D3 receptors using [3H]raclopride; settings: CHO-K1 membranes, ca. […] [3H]raclopride
Experimental: (§1) The membrane preparation was then aliquoted and stored at −70° C.

[6] = molecular target: human 5-HT2A receptor (Homo sapiens (Human), UniProt P28223); assay: Competitive binding assay at human 5-HT2A receptors ([3H]ketanserin); settings: CHO-K1 membranes, 1 nM [3H]ketanserin
Experimental: Radioactivity was determined with a MicroBeta^2® microplate counter (PerkinElmer).

[7] = molecular target: T2, human D2L receptors; assay: Competitive binding assay at human D2L receptors using [3H]raclopride; settings: CHO-K1 membranes, 2 nM [3H]raclopride
Experimental: as §1

[8] = tested on: Phencyclidine-induced hypermotility in rats; assay: Phencyclidine-induced hypermotility in rats; type: in vivo, rat; settings: minimum effective dose, time spent with ambulation over one hour
Experimental: Spontaneous locomotor activity was measured using a six-channel activity monitor manufactured by Experimetria Ltd. (Budapest, HU). […] Additional arrays of photocells (30 pairs) were placed along opposite sides of the cage at different heights (6.5 cm, 12 cm, 18 cm and 23 cm) in order to detect rearing responses.
Test compounds were administered to study animals either orally or subcutaneously, with ten animals per treatment group. In these studies, male Harlan-Wistar rats (Toxi-Coop, Budapest, HU) weighing 190-210 grams were used. After oral administration of test compound or vehicle, animals were individually habituated to the activity monitors for 30 minutes. In the cases of subcutaneous administration of test compounds, rats were first habituated for 15 minutes to the activity monitors, then treated with the test compound or vehicle followed by replacing them into the activity monitors for an additional 15-minute period of habituation. […]
Data were analyzed using GraphPad® Prism® 9 software (GraphPad, San Diego, CA, USA). […] Drug effect was evaluated using Analysis of Variance (ANOVA, or Welch's ANOVA when appropriate) followed by Dunnett's multiple comparisons test. When appropriate, the ED50 value was determined from percent inhibition data from linear regression analysis.

T2 sequence (P14416 whole entry): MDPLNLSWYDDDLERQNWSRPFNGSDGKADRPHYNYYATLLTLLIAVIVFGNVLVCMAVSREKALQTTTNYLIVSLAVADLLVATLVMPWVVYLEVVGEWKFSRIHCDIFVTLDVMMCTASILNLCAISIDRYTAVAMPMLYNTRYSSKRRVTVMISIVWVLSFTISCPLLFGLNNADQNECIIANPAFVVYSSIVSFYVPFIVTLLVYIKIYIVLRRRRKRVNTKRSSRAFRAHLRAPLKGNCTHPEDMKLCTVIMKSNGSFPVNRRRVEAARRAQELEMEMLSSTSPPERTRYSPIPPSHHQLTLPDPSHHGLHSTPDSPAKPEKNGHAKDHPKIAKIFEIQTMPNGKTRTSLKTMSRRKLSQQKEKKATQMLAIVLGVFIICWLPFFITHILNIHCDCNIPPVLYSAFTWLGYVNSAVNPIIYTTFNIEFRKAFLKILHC
T1 sequence (P35462 whole entry): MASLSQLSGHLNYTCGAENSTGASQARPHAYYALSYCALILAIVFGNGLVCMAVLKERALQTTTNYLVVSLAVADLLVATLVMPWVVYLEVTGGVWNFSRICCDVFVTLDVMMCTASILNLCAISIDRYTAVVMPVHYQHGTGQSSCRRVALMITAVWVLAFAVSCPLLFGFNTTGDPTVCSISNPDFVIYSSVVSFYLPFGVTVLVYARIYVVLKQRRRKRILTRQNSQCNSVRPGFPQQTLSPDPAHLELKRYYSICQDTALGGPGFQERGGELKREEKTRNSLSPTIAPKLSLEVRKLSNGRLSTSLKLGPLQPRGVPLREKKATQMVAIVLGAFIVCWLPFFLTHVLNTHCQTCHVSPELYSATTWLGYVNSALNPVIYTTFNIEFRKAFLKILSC
Chain of human 5-HT2A receptor (P28223 whole entry): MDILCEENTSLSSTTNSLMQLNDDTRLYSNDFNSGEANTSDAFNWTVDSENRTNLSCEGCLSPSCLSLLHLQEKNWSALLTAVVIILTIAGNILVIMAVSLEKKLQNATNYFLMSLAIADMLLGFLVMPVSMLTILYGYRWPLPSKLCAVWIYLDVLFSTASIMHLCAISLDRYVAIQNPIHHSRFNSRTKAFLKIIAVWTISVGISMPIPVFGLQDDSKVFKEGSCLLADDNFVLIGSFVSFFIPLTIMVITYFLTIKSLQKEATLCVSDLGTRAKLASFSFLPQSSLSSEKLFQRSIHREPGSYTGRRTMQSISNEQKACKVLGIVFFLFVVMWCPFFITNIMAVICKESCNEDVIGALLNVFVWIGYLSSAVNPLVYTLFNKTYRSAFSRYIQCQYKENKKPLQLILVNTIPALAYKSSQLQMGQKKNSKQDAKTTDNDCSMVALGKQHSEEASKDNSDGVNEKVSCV

Row | Structure (SMILES) | Thermodynamic sol. [1] [µM] | Thermodynamic sol. [2] [µM] | D3 pKi [3H] spiperone [3] | D2L pKi [3H]spiperone [4] | D3 pKi [3H]raclopride [5] | 5-HT2A pKi [6] | D2L pKi [3H]raclopride [7] | PCP (MED, mg/kg) [8] [mg/kg]
1 | CCCN(C)C(=O)N[C@H]1CC[C@H](CCN2CCN(c3cccc(Cl)c3Cl)CC2)CC1 [Ref. Ex. 1, N-[(1r,4r)-4-{2-[4 (2,3-dichlorophenyl)piperazin-1-yl]ethyl}cyclohexyl]-N-methyl-N-propylurea, reference compound] | 4.9 ± 0.3 | 6.2 ± 0.3 | – | – | – | – | – | –
2 | COCN(C)C(=O)N[C@H]1CC[C@H](CCN2CCN(c3cccc(Cl)c3Cl)CC2)CC1 [Example 2, N′-[(1r,4r)-4-{2-[4-(2,3-dichlorophenyl)piperazin-1-yl]ethyl}cyclohexyl]-N-(methoxymethyl)-N-methylurea] | 58.93 ± 5.32 | 50.93 ± 2.3 | 9.77 | 8.93 | 9.15 | 7.81 | 8.90 | –
3 | CN(C)C(=O)N[C@H]1CC[C@H](CCN2CCN(c3cccc(Cl)c3Cl)CC2)CC1 [Ref. Ex. 2, N′-[(1r,4r)-4-{2-[4-(2,3-dichlorophenyl)piperazin-1-yl]ethyl}cyclohexyl]-N,N-dimethylurea, reference compound] | – | – | – | – | – | – | – | 0.1
4 | CCCOCN(C)C(=O)N[C@H]1CC[C@H](CCN2CCN(c3cccc(Cl)c3Cl)CC2)CC1 [Example 3, N′-[(1r,4r)-4-{2-[4-(2,3-dichlorophenyl)piperazin-1-yl]ethyl}cyclohexyl]-N-methyl-N-(propoxymethyl)urea] | 30.50 ± 3.06 | 39.68 ± 2.15 | 9.74 | 8.93 | – | – | 8.94 | –
5 | CCOCN(C)C(=O)N[C@H]1CC[C@H](CCN2CCN(c3cccc(Cl)c3Cl)CC2)CC1 [Example 1, N′-[(1r,4r)-4-{2-[4-(2,3-dichlorophenyl)piperazin-1-yl]ethyl}cyclohexyl]-N-(ethoxymethyl)-N-methylurea] | 10.9 ± 0.3 | 45.3 ± 0.6 | – | – | – | 7.64 | – | 0.4
